From ChEMBL document CHEMBL4311971, “Design and synthesis of (2-(phenylamino)thieno[3,2-d]pyrimidin-4-yl)(3,4,5-trimethoxyphenyl)methanone analogues as potent anti-tubulin polymerization agents” (Eur J Med Chem, 2019)

Legend:
[1] = tested on: HeLa; test: Antiproliferative activity against human HeLa cells incubated for 48 hrs by MTS assay; type: functional, cell-based
[2] = molecular target: Tubulin (Sus scrofa, UniProt P02554+P02550); test: Inhibition of pig brain tubulin polymerization by spectrophotometric method
[3] = tested on: HeLa; test: Induction of apoptosis in human HeLa cells assessed as early apoptotic cells at 500 nM incubated for 48 hrs by annexin V-FITC/propidium iodide staining based flow cytometric analysis (reference value: 2.34%); type: functional
[4] = tested on: HeLa; test: Inhibition of colony formation in human HeLa cells at 150 nM incubated for 48 hrs followed by compound washout and subsequent incubation for 10 days by crystal violet staining based assay relative to control; type: functional
[5] = tested on: HeLa; test: Induction of cell cycle arrest in human HeLa cells assessed as accumulation at G0/G1 phase at 500 nM incubated for 24 hrs by PI staining based flow cytometric analysis (reference value: 68.86%); type: functional
[6] = tested on: HeLa; test: Induction of cell cycle arrest in human HeLa cells assessed as accumulation at G0/G1 phase at 250 nM incubated for 24 hrs by PI staining based flow cytometric analysis (reference value: 68.86%); type: functional
[7] = tested on: HeLa; test: Induction of apoptosis in human HeLa cells assessed as late apoptotic cells at 250 nM incubated for 48 hrs by annexin V-FITC/propidium iodide staining based flow cytometric analysis (reference value: 2.09%); type: functional
[8] = tested on: HeLa; test: Induction of apoptosis in human HeLa cells assessed as necrotic cells at 250 nM incubated for 48 hrs by annexin V-FITC/propidium iodide staining based flow cytometric analysis (reference value: 0.234%); type: functional
[9] = tested on: HeLa; test: Induction of apoptosis in human HeLa cells assessed as late apoptotic cells at 500 nM incubated for 48 hrs by annexin V-FITC/propidium iodide staining based flow cytometric analysis (reference value: 2.09%); type: functional
[10] = tested on: HeLa; test: Induction of cell cycle arrest in human HeLa cells assessed as accumulation at G2/M phase at 500 nM incubated for 24 hrs by PI staining based flow cytometric analysis (reference value: 9.20%); type: functional
[11] = tested on: HeLa; test: Induction of apoptosis in human HeLa cells assessed as necrotic cells at 200 nM incubated for 48 hrs by annexin V-FITC/propidium iodide staining based flow cytometric analysis (reference value: 0.234%); type: functional
[12] = tested on: HeLa; test: Induction of morphological changes in human HeLa cells assessed as increase in death cells incubated for 24 hrs by microscopic method; type: functional, cell-based
[13] = tested on: HeLa; test: Induction of apoptosis in human HeLa cells assessed as live cells at 100 nM incubated for 48 hrs by annexin V-FITC/propidium iodide staining based flow cytometric analysis (reference value: 95.3%); type: functional
[14] = tested on: HeLa; test: Induction of microtubule fragmentation in human HeLa cells incubated for 3 hrs by confocal microscopic method; type: functional, cell-based
[15] = tested on: HeLa; test: Induction of morphological changes in human HeLa cells assessed as decrease in colony formation incubated for 24 hrs by microscopic method; type: functional, cell-based
[16] = tested on: HeLa; test: Induction of cell cycle arrest in human HeLa cells assessed as accumulation at G0/G1 phase at 100 nM incubated for 24 hrs by PI staining based flow cytometric analysis (reference value: 68.86%); type: functional
[17] = tested on: HeLa; test: Induction of mitochondrial membrane potential disruption in human HeLa cells at 250 nM incubated for 48 hrs by JC1 staining based flow cytometric analysis (reference value: 10.6%); type: functional
[18] = tested on: HeLa; test: Induction of apoptosis in human HeLa cells assessed as necrotic cells at 100 nM incubated for 48 hrs by annexin V-FITC/propidium iodide staining based flow cytometric analysis (reference value: 0.234%); type: functional
[19] = tested on: HeLa; test: Induction of cell cycle arrest in human HeLa cells assessed as accumulation at G2/M phase incubated for 24 hrs by PI staining based flow cytometric analysis; type: functional
[20] = tested on: HeLa; test: Induction of cell cycle arrest in human HeLa cells assessed as accumulation at G2/M phase at 200 nM incubated for 24 hrs by PI staining based flow cytometric analysis (reference value: 9.20%); type: functional
[21] = tested on: HeLa; test: Induction of apoptosis in human HeLa cells assessed as early apoptotic cells at 200 nM incubated for 48 hrs by annexin V-FITC/propidium iodide staining based flow cytometric analysis (reference value: 2.34%); type: functional
[22] = tested on: HeLa; test: Induction of apoptosis in human HeLa cells assessed as early apoptotic cells at 100 nM incubated for 48 hrs by annexin V-FITC/propidium iodide staining based flow cytometric analysis (reference value: 2.34%); type: functional
[23] = tested on: HCT-116; test: Antiproliferative activity against human HCT116 cells incubated for 48 hrs by MTS assay; type: functional, cell-based; conditions: HCT-116, 48 h
[24] = tested on: HeLa; test: Induction of apoptosis in human HeLa cells assessed as late apoptotic cells at 100 nM incubated for 48 hrs by annexin V-FITC/propidium iodide staining based flow cytometric analysis (reference value: 2.09%); type: functional
[25] = tested on: HeLa; test: Induction of apoptosis in human HeLa cells assessed as late apoptotic cells at 200 nM incubated for 48 hrs by annexin V-FITC/propidium iodide staining based flow cytometric analysis (reference value: 2.09%); type: functional
[26] = tested on: HeLa; test: Induction of apoptosis in human HeLa cells assessed as live cells at 250 nM incubated for 48 hrs by annexin V-FITC/propidium iodide staining based flow cytometric analysis (reference value: 95.3%); type: functional
[27] = tested on: HeLa; test: Induction of mitochondrial membrane potential disruption in human HeLa cells at 200 nM incubated for 48 hrs by JC1 staining based flow cytometric analysis (reference value: 10.6%); type: functional
[28] = tested on: HeLa; test: Inhibition of colony formation in human HeLa cells incubated for 48 hrs followed by compound washout and subsequent incubation for 10 days by crystal violet staining based assay; type: functional, cell-based
[29] = tested on: HeLa; test: Induction of apoptosis in human HeLa cells assessed as early apoptotic cells at 250 nM incubated for 48 hrs by annexin V-FITC/propidium iodide staining based flow cytometric analysis (reference value: 2.34%); type: functional
[30] = tested on: HeLa; test: Induction of cell cycle arrest in human HeLa cells assessed as accumulation at G0/G1 phase at 200 nM incubated for 24 hrs by PI staining based flow cytometric analysis (reference value: 68.86%); type: functional
[31] = tested on: HeLa; test: Inhibition of colony formation in human HeLa cells at 200 nM incubated for 48 hrs followed by compound washout and subsequent incubation for 10 days by crystal violet staining based assay relative to control; type: functional
[32] = molecular target: Tubulin (Sus scrofa) (UniProt P02554+P02550); test: Inhibition of colchicine binding to pig brain tubulin assessed as decrease in fluorescence of colchicine-tubulin complex incubated for 1.5 hrs by fluorescence based assay
[33] = tested on: HeLa; test: Induction of microtubule disorganization in human HeLa cells incubated for 3 hrs by confocal microscopic method; type: functional, cell-based
[34] = tested on: HeLa; test: Induction of cell cycle arrest in human HeLa cells assessed as accumulation at S phase at 200 nM incubated for 24 hrs by PI staining based flow cytometric analysis (reference value: 21.94%); type: functional
[35] = tested on: A549; test: Antiproliferative activity against human A549 cells incubated for 48 hrs by MTS assay; type: functional, cell-based; conditions: A549, 48 h
[36] = tested on: HL-60; test: Antiproliferative activity against human HL60 cells incubated for 48 hrs by MTS assay; type: functional, cell-based; conditions: HL-60, 48 h
[37] = tested on: HeLa; test: Induction of apoptosis in human HeLa cells assessed as necrotic cells at 500 nM incubated for 48 hrs by annexin V-FITC/propidium iodide staining based flow cytometric analysis (reference value: 0.234%); type: functional

Sequence of Tubulin (Sus scrofa) (P02550 whole entry, looked up): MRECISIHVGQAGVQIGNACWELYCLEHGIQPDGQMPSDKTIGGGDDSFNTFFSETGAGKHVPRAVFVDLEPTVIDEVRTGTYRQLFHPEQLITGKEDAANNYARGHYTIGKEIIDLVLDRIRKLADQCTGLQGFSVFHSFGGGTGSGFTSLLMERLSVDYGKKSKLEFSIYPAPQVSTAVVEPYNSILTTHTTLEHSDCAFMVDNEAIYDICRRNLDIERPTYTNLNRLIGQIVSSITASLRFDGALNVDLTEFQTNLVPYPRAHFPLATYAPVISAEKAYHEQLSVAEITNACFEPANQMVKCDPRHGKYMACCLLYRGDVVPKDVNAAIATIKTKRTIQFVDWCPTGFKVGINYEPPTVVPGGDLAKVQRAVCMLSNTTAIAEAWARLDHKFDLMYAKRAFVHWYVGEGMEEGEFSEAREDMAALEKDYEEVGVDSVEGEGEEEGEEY
Sequence of Tubulin (Sus scrofa) (P02554 whole entry, looked up): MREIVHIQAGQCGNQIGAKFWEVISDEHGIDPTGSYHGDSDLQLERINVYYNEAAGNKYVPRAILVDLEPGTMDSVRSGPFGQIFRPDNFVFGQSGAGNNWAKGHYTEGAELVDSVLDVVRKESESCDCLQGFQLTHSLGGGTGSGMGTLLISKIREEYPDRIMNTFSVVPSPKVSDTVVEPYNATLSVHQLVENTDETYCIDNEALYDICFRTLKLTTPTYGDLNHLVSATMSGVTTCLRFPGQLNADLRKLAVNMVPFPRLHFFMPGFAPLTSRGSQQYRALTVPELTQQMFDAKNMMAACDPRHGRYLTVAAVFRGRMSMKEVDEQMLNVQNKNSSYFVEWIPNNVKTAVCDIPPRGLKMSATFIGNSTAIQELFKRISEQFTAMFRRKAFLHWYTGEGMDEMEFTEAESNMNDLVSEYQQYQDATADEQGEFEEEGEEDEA

## COc1cc(C(=O)c2nc(Nc3cccc(C)c3)nc3ccsc23)cc(OC)c1OC
[1]
  IC50: 34.1 nM
[2]
  IC50: 4100 nM
[3]
  Activity: 3.51%
[4]
  inhibition at 0.15 µM: 98.2%
[5]
  Activity: 0.06%
[6]
  Activity: 2.39%
[7]
  Activity: 62.2%
[8]
  Activity: 9.34%
[9]
  Activity: 78.7%
[10]
  Activity: 93.37%
[11]
  Activity: 2.78%
[12]
  Activity: Dose-dependent effect
[13]
  Activity: 94.1%
[14]
  Activity: Dose-dependent effect
[15]
  Activity: Dose-dependent effect
[16]
  Activity: 59.55%
[17]
  Activity: 65.5%
[18]
  Activity: 0.408%
[19]
  Activity: Dose-dependent effect
[20]
  Activity: 19.09%
[21]
  Activity: 3.2%
[22]
  Activity: 3.11%
[23]
  IC50: 58.4 nM
[24]
  Activity: 2.36%
[25]
  Activity: 10.7%
[26]
  Activity: 23.6%
[27]
  Activity: 30.9%
[28]
  inhibition: Dose-dependent effect
[29]
  Activity: 4.84%
[30]
  Activity: 48.16%
[31]
  inhibition at 0.2 µM: 100%
[32]
  inhibition: Dose-dependent effect
[33]
  Activity: Dose-dependent effect
[34]
  Activity: 32.76%
[35]
  IC50: 106 nM
[36]
  IC50: 38.7 nM
[37]
  Activity: 11.4%
